Where “and” joins values, the source holds several entries; their conditions need not be identical. Equal values may be shown once. Read-outs that look alike come from different tables or passages of the source.
Legend:
[1] = tested on: PC-3 cell line cells; experiment: Cellular uptake / cell killing by luminescence, PC-3; assay type: cell-based; details: Homo sapiens, PC-3 cells, FIG. 5C
Procedure: (§1) Different cell lines were seeded, incubated, and washed prior to administering a dose solution of CK-TGX-MN. Cell lines tested included LNCaP cell line, which is a cell line with epithelial-like morphology that was isolated from a metastatic lymph node a lesion of human prostate cancer; C4-2, which is a prostate cancer cell line derived from LNCaP cells that grows in the absence of androgens, yet responds to manipulation of androgen levels; GL261 cell line, which are murine glioma cells isolated from […] brain; PC-3 cell line, which is a prostate cancer cell line that is typically used as a model of androgen-independent prostate cancer; TRAMP cell line, which are epithelial cells isolated from transgenic adenocarcinoma of the mouse prostate; and Hela cell line, which is an immortalized human cell line isolated from cervical cancer cells.
(§2) The cellular uptake was measured as a function of luminescence and concentration of CK-TGX-MN, by determining the IC50 value. A decrease in luminescence observed translates to the efficacy of CK-TGX-MN in killing the cells of the respective cell culture.
Moving on to FIG. 5C, the cellular uptake of CK-TGX-MN and TGX-221 in PC-3 cell line cells was measured.

[2] = tested on: TRAMP cell line cells; experiment: Cellular uptake / cell killing by luminescence, TRAMP; assay type: cell-based; details: Mus musculus, FIG. 5D
Procedure: as §1, §2
Moving on to FIG. 5D, the cellular uptake of CK-TGX-MN and TGX-221 in TRAMP cell line cells was measured.

[3] = tested on: LNCaP cell line cells; experiment: Cellular uptake / cell killing by luminescence, LNCaP; assay type: cell-based; details: Homo sapiens, FIG. 5F
Procedure: as §1, §2
Finally, moving on to FIG. 5F, the cellular uptake of CK-TGX-MN and TGX-221 in LNCaP cell line cells was measured.

[4] = tested on: GL261 cell line cells; experiment: Cellular uptake / cell killing by luminescence, GL261; assay type: cell-based, murine; details: Mus musculus, FIG. 5B
Procedure: as §1, §2

[5] = tested on: C4-2 cell line cells; experiment: Cellular uptake / cell killing by luminescence, C4-2; assay type: cell-based; details: Homo sapiens, C4-2 cells, FIG. 5A
Procedure: as §1, §2

[6] = Pharmacokinetic (PK) study, IV and oral route, in mice; details: mouse, in vivo, oral 2 mg/ml formulation vs IV 1 mg/ml formulation
Procedure: Bioavailability in Pharmacology is a measure of an amount of a drug substance that enters the circulation and becomes completely available for its intended purpose when introduced into the body. There are several delivery routes for drugs including intra-venous route (IV), oral route, subcutaneous route, rectal route, intramuscular route, vaginal route, inhaled route, and the like.
Bioavailability of CK-TGX-MN was determined in relation to a liquid formulation of CK-TGX-MN 1 mg/ml in 5% DMSO, 10%, and 85% aqueous solution. A dose amount of aqueous CK-TGX-MN was prepared for delivery through the IV route in-vivo. Additionally, a liquid formulation of CK-TGX-MN 2 mg/ml in 5% DMSO, 10%, and 85% aqueous solution was prepared for delivery of a dose amount of CK-TGX-MN through the oral route in-vivo. The pharmacokinetic (PK) studies were performed in mice. As shown in graph 302 of FIG. 3B, the depicted example mice had similar clearance of IV delivered CK-TGX-MN over time.

[7] = target: PI3Kβ isoform (Homo sapiens, UniProt P42338); experiment: Inhibition of PI3Kβ isoform, dose response curves (FIG. 4B); assay type: biochemical
[8] = tested on: Hela cell line cells; experiment: Cellular uptake / cell killing by luminescence, Hela; assay type: cell-based; details: Homo sapiens, FIG. 5E
Procedure: as §1, §2
Moving on to FIG. 5E, the cellular uptake of CK-TGX-MN and TGX-221 in Hela cell line cells was measured.

[9] = physchem; assay type: physicochemical
[10] = background statement, cited from earlier work

Chain of PI3Kβ isoform (P42338 whole entry, canonical isoform): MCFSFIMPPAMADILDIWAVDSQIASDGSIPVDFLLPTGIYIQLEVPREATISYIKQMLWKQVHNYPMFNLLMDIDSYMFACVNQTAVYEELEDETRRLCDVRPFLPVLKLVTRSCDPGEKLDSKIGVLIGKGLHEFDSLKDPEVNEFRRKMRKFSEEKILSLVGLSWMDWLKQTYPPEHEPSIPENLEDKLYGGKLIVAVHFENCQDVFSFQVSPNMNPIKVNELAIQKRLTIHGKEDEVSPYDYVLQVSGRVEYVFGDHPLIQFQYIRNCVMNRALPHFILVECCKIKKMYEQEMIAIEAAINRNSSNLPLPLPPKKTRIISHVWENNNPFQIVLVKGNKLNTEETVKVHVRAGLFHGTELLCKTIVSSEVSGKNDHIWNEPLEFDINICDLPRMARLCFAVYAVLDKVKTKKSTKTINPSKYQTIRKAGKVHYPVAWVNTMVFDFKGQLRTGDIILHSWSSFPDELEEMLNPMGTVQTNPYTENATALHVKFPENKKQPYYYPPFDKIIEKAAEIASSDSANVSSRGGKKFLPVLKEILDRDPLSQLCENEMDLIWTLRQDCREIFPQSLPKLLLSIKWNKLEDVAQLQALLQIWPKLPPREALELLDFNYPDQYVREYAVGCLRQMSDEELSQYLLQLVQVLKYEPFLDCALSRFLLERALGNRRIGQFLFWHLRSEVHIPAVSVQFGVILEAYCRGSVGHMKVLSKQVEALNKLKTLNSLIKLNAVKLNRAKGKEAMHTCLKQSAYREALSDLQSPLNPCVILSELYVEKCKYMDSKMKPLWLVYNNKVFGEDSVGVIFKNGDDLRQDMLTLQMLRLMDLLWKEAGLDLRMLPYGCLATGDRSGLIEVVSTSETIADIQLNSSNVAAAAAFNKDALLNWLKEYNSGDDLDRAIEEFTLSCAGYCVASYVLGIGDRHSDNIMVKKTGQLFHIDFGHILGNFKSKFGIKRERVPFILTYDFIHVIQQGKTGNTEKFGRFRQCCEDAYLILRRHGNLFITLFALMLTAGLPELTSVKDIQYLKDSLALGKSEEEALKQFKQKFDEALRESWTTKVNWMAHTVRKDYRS
Chain of PI3Kβ isoform (P27986 whole entry partner, canonical isoform): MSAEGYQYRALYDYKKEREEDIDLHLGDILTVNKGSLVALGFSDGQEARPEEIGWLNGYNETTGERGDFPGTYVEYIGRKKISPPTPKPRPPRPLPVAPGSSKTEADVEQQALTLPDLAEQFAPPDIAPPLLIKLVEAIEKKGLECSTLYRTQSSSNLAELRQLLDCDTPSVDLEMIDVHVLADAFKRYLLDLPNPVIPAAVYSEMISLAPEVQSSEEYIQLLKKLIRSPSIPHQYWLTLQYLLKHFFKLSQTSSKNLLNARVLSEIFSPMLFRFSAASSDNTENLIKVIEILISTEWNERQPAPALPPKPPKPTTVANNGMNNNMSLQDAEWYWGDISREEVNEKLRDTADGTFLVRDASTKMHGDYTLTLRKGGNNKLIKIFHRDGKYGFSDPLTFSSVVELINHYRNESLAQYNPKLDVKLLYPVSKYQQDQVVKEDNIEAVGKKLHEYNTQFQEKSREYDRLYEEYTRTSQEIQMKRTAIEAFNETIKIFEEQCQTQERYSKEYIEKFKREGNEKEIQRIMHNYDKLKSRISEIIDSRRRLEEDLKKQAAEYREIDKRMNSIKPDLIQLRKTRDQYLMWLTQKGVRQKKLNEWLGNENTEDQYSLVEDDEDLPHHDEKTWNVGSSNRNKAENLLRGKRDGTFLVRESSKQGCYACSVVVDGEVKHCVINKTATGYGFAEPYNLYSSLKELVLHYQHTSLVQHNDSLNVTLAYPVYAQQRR

Row | bioavailability [6] [%] | IC50 [7] [µM] | solubility [9] | SMILES | IC50 [1] [µM] | IC50 [2] [µM] | IC50 [3] [µM] | IC50 [4] [µM] | IC50 [5] [µM] | IC50 [8] [µM] | solubility [10] [µg/mL] | Log D7.4 ([10]; pH 7.4)
1 | ~6.4 | 0.00948 | 4630 µg/mL and 11400 µM | Cc1cc(C(C)N(CCN)c2ccccc2)c2nc(N3CCOCC3)cc(=O)n2c1 (stereo not drawn) [CK-TGX-MN, 9-(1-((2-aminoethyl)(phenyl)amino)ethyl)-7-methyl-2-morpholino-4H-pyrido[1,2-a]pyrimidin-4-one] | 24.4 | 17.2 | 6.39 | 13.5 | 15.8 | 23.9 | – | –
2 | – | – | 90 µg/mL and 250 µM | Cc1cc(C(C)Nc2ccccc2)c2nc(N3CCOCC3)cc(=O)n2c1 (stereo not drawn) [TGX-221, 7-methyl-2-(4-morpholinyl)-9-[1-(phenylamino)ethyl]-4H-pyrido[1,2-a]pyrimidin-4-one] | 156 | 81.2 | 30.5 | 42 | 93.2 | 69.7 | < 1000 | 3.6

— patent US20250195532A1, “NOVEL PHOSPHOINOSITIDE 3-KINASE (PI3K) INHIBITOR, COMPOSITIONS COMPRISING THE SAME, METHODS OF MAKING, AND METHODS OF TREATING A DISEASE” (The Curators of the University of Missouri, priority 2022, published 2025)
